From ChEMBL document CHEMBL2074483, “Multidrug-resistance protein 5 is a multispecific organic anion transporter able to transport nucleotide analogs” (Proc Natl Acad Sci U S A, 2000)

Key:
[1] = target: T1, ATP-binding cassette sub-family C member 5 (Homo sapiens, UniProt O15440); experiment: TP_TRANSPORTER: efflux in MRP5-expressing MDCKII cells; assay type: functional, cell-based; conditions: dog, mdck-ii
[2] = target: T1, ATP-binding cassette sub-family C member 5; experiment: TP_TRANSPORTER: inhibition of PMEA efflux (PMEA: 1 uM) in MRP5-expressing MDCKII cells; assay type: functional, cell-based, MDCK-II

T1 sequence (O15440 whole entry): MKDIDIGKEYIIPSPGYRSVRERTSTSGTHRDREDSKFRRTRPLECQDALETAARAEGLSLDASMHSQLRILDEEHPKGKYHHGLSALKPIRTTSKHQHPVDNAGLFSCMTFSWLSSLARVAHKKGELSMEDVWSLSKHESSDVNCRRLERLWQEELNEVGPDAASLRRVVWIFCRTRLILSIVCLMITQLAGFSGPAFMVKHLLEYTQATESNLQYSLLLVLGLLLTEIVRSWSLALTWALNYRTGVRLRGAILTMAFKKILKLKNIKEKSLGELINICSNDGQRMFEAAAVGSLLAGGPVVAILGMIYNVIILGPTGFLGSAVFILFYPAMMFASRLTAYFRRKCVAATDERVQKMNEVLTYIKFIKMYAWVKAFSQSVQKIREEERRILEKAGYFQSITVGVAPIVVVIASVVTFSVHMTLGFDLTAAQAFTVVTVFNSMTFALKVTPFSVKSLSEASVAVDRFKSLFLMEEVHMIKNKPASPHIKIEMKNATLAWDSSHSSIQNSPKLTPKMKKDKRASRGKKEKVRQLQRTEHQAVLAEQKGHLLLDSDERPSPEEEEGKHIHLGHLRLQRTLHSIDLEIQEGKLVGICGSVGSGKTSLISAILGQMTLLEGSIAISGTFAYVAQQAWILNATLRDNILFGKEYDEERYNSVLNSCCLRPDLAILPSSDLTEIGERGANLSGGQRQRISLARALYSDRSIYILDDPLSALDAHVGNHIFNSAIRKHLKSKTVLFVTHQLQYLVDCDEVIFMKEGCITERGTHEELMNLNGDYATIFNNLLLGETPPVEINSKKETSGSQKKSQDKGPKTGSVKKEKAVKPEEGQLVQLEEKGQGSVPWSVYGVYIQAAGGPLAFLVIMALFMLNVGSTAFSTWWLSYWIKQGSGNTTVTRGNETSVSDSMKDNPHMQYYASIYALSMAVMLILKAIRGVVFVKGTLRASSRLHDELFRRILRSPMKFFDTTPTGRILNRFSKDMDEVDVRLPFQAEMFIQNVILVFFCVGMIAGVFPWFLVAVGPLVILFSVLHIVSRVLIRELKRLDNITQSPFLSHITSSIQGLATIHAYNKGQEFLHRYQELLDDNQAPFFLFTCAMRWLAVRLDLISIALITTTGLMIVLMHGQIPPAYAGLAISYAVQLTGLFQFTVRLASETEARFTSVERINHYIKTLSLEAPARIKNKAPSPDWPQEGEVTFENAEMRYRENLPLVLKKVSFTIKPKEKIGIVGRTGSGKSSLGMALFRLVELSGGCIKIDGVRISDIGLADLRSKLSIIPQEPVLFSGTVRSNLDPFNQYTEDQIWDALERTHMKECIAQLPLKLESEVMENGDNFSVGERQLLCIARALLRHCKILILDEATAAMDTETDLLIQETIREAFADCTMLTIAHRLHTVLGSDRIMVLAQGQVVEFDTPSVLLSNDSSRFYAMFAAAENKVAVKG

| IC50 [2] [µM] | SMILES | Activity [1] |
| --- | --- | --- |
| – | Nc1ncnc2c1ncn2CCOCP(=O)(O)O [ADEFOVIR] | substrate [+] |
| – | Sc1ncnc2nc[nH]c12 [MERCAPTOPURINE ANHYDROUS] | substrate [+] |
| < 100 | O=C1C(CC[S+]([O-])c2ccccc2)C(=O)N(c2ccccc2)N1c1ccccc1 (stereo not drawn) [SULFINPYRAZONE] | – |
